# Laboratory results from publication PMC9609996, “SAR Study and Molecular Mechanism Investigation of Novel Naphthoquinone-furan-2-cyanoacryloyl Hybrids with Antitumor Activity” (Pharmaceutics, 2022).
# How the values were obtained:
# Format in all cases: cell-based, human
# [1] = test system: HeLa; experiment: CCK-8 anti-proliferation assay, HeLa; conditions: Homo sapiens, 20 μM, mean ± SD, read-out: Inhibition Rate (%) at 20 μM HeLa
# Experimental: (§1) Human cervical cancer HeLa, human prostate cancer PC3, human colonic carcinoma HCT116, human lung carcinoma A549, human breast cancer MDA-MB-231, mouse melanoma B16, human ovarian cancer SKOV3, human hepatoma Hep3B, and human liver L02 cells were purchased from the Cell Bank of Shanghai Institute of Biochemistry and Cell Biology, Chinese Academy of Sciences (Shanghai, China). The HeLa, A549, B16, PC3, MDA-MB-231, HCT116, and L02 cells were cultured in Dulbecco’s modified Eagle medium (DMEM, Gibco Inc.; Gaithersburg, MD, USA). All cultures were supplied with 10% fetal bovine serum (FBS; YHSM, Beijing, China), 100 IU/mL of penicillin, and 100 μg/mL of streptomycin, and cells were incubated at 37 °C in an atmosphere of 5% CO2.
# (§2) A CCK-8 kit (MCE, USA) was used to perform a CCK-8 assay. Cells were plated and grown in the 96-well plates for the indicated period (48 h) in the incubator, followed by an incubation with the CCK-8 solutions for 1–4 h. Subsequently, the absorbance (450 nm) was measured by a microplate reader. The median inhibitory concentration (IC50) was determined from the dose–response curve. Experiments were performed in a triplicate.
# [2] = test system: PC3; experiment: CCK-8 anti-proliferation assay, PC3; conditions: Homo sapiens, PC-3, 20 μM, mean ± SD, read-out: Inhibition Rate (%) at 20 μM PC3
# Experimental: as §1, §2
# [3] = test system: A549; experiment: CCK-8 anti-proliferation assay, A549; conditions: Homo sapiens, A549, 20 μM, mean ± SD, read-out: Inhibition Rate (%) at 20 μM A549
# Experimental: as §1, §2
# [4] = test system: HCT116; experiment: CCK-8 anti-proliferation assay, HCT116; conditions: Homo sapiens, HCT-116, 20 μM, mean ± SD, read-out: Inhibition Rate (%) at 20 μM HCT116
# Experimental: as §1, §2
Structure (SMILES),inhibition at 20 µM [1],inhibition at 20 µM [2],inhibition at 20 µM [3],inhibition at 20 µM [4]
"COc1cc(-c2ccc(/C=C(\C#N)C(=O)NC3CCN(Cc4ccccc4)CC3)o2)c(OC)c2ccccc12 [Compound 4a, (E)-N-(1-benzylpiperidin-4-yl)-2-cyano-3-(5-(1,4-dimethoxynaphthalen-2-yl)furan-2-yl)acrylamide]",13.6 ± 0.15%,15.5 ± 0.17%,16.3 ± 0.22%,5.69 ± 0.23%
"COc1cc(-c2ccc(/C=C(\C#N)C(=O)N3CCc4ccccc4C3)o2)c(OC)c2ccccc12 [Compound 4b, (E)-3-(5-(1,4-dimethoxynaphthalen-2-yl)furan-2-yl)-2-(1,2,3,4-tetrahydroisoquinoline-2-carbonyl)acrylonitrile]",11.71 ± 0.04%,3.88 ± 0.13%,24.2 ± 0.31%,19.6 ± 0.65%
"COc1cc(-c2ccc(/C=C(\C#N)C(=O)NCCc3cccs3)o2)c(OC)c2ccccc12 [Compound 4d, (E)-2-cyano-3-(5-(1,4-dimethoxynaphthalen-2-yl)furan-2-yl)-N-(2-(thiophen-2-yl)ethyl)acrylamide]",11.6 ± 0.79%,7.17 ± 0.31%,21.58 ± 0.02%,10.8 ± 0.49%
"COc1cc(-c2ccc(/C=C(\C#N)C(=O)N3CC4CCCCC4C3)o2)c(OC)c2ccccc12 (stereo not drawn) [Compound 4f, (E)-3-(5-(1,4-dimethoxynaphthalen-2-yl)furan-2-yl)-2-(octahydro-1H-isoindole-2-carbonyl)acrylonitrile]",,11.8 ± 0.79%,,43.7 ± 0.84%
"COc1cc(-c2ccc(/C=C(\C#N)C(=O)NCc3cccc(C(F)(F)F)c3)o2)c(OC)c2ccccc12 [Compound 4g, (E)-2-cyano-3-(5-(1,4-dimethoxynaphthalen-2-yl)furan-2-yl)-N-(3-(trifluoromethyl)benzyl)acrylamide]",16.1 ± 0.17%,15.38 ± 0.01%,4.87 ± 0.3%,7.69 ± 0.02%
"COc1cc(-c2ccc(/C=C(\C#N)C(=O)NCCN3CCCC3)o2)c(OC)c2ccccc12 [Compound 4i, (E)-2-cyano-3-(5-(1,4-dimethoxynaphthalen-2-yl)furan-2-yl)-N-(2-(pyrrolidin-1-yl)ethyl)acrylamide]",35 ± 0.41%,12.29 ± 0.12%,13.9 ± 0.87%,29.05 ± 0.08%
"N#C/C(=C\c1ccc(C2=CC(=O)c3ccccc3C2=O)o1)C(=O)NC1CCN(Cc2ccccc2)CC1 [Compound 5a, (E)-N-(1-benzylpiperidin-4-yl)-2-cyano-3-(5-(1,4-dioxo-1,4-dihydronaphthalen-2-yl)furan-2-yl)acrylamide]",10.4 ± 0.41%,3.7 ± 0.19%,13.3 ± 0.17%,8.36 ± 0.26%
"N#C/C(=C\c1ccc(C2=CC(=O)c3ccccc3C2=O)o1)C(=O)N1CCc2ccccc2C1 [Compound 5b, (E)-3-(5-(1,4-dioxo-1,4-dihydronaphthalen-2-yl)furan-2-yl)-2-(1,2,3,4-tetrahydroisoquinoline-2-carbonyl)acrylonitrile]",20.5 ± 0.28%,17.8 ± 0.33%,18.4 ± 0.82%,8.83 ± 0.1%
"N#C/C(=C\c1ccc(C2=CC(=O)c3ccccc3C2=O)o1)C(=O)NCCc1cccs1 [Compound 5d, (E)-2-cyano-3-(5-(1,4-dioxo-1,4-dihydronaphthalen-2-yl)furan-2-yl)-N-(2-(thiophen-2-yl)ethyl)acrylamide]",5.61 ± 0.24%,15.5 ± 0.2%,17.2 ± 0.35%,26.8 ± 0.94%
"CC1(C)CC(NC(=O)/C(C#N)=C/c2ccc(C3=CC(=O)c4ccccc4C3=O)o2)CC(C)(C)N1 [Compound 5e, (E)-2-cyano-3-(5-(1,4-dioxo-1,4-dihydronaphthalen-2-yl)furan-2-yl)-N-(2,2,6,6-tetramethylpiperidin-4-yl)acrylamide]",29.73 ± 0.07%,19.3 ± 0.28%,19.8 ± 0.32%,5.97 ± 95%
"N#C/C(=C\c1ccc(C2=CC(=O)c3ccccc3C2=O)o1)C(=O)N1CC2CCCCC2C1 (stereo not drawn) [Compound 5f, (E)-3-(5-(1,4-dioxo-1,4-dihydronaphthalen-2-yl)furan-2-yl)-2-(octahydro-1H-isoindole-2-carbonyl)acrylonitrile]",1.9 ± 0.72%,11.13 ± 0.03%,13.9 ± 0.14%,3.41 ± 0.26%
"COC(=O)c1ccc(-c2cc(OC)c3ccccc3c2OC)o1 [Compound 6, Methyl 5-(1,4-dimethoxynaphthalen-2-yl)furan-2-carboxylate]",27 ± 0.32%,21.6 ± 0.83%,21.3 ± 0.45%,16.78 ± 0.07%
"COC(=O)c1ccc(C2=CC(=O)c3ccccc3C2=O)o1 [Compound 6a, Methyl 5-(1,4-dioxo-1,4-dihydronaphthalen-2-yl)furan-2-carboxylate]",26.1 ± 0.66%,6.93 ± 0.79%,2.15 ± 0.37%,17.67 ± 0.06%
"COc1cc(-c2ccc(C(=O)NC3CCN(Cc4ccccc4)CC3)o2)c(OC)c2ccccc12 [Compound 8a, N-(1-benzylpiperidin-4-yl)-5-(1,4-dimethoxynaphthalen-2-yl)furan-2-carboxamide]",20.86 ± 0.18%,15.5 ± 0.29%,24.1 ± 0.35%,12.4 ± 0.15%
"COc1cc(-c2ccc(C(=O)NC(C)c3ccccc3)o2)c(OC)c2ccccc12 (stereo not drawn) [Compound 8b, 5-(1,4-Dimethoxynaphthalen-2-yl)-N-(1-phenylethyl)furan-2-carboxamide]",19.33 ± 0.18%,24.99 ± 0.19%,7.87 ± 0.11%,2.17 ± 0.02%
"COc1cc(-c2ccc(C(=O)NCCC(=O)N3CCOCC3)o2)c(OC)c2ccccc12 [Compound 8c, 5-(1,4-Dimethoxynaphthalen-2-yl)-N-(3-morpholino-3-oxopropyl)furan-2-carboxamide]",,4.65 ± 0.56%,14.1 ± 0.32%,4.73 ± 0.47%
"COc1cc(-c2ccc(C(=O)NCc3cc(C(F)(F)F)ccc3F)o2)c(OC)c2ccccc12 [Compound 8d, 5-(1,4-Dimethoxynaphthalen-2-yl)-N-(2-fluoro-5-(trifluoromethyl)benzyl)furan-2-carboxamide]",22.7 ± 0.27%,22.45 ± 0.05%,19.35 ± 0.07%,14.5 ± 0.24%
"COc1cc(-c2ccc(C(=O)Nc3cccc(N4CCN(C)CC4)c3)o2)c(OC)c2ccccc12 [Compound 8e, 5-(1,4-Dimethoxynaphthalen-2-yl)-N-(3-(4-methylpiperazin-1-yl)phenyl)furan-2-carboxamide]",40.58 ± 0.36%,11.5 ± 0.17%,14.5 ± 0.25%,7.7 ± 0.27%
"COc1cc(-c2ccc(C(=O)NC3CCC(F)(F)CC3)o2)c(OC)c2ccccc12 [Compound 8f, N-(4,4-difluorocyclohexyl)-5-(1,4-dimethoxynaphthalen-2-yl)furan-2-carboxamide]",30.1 ± 0.39%,17.72 ± 0.12%,28.3 ± 0.33%,27.19 ± 0.15%
"COc1cc(-c2ccc(C(=O)NCCCn3ccnc3)o2)c(OC)c2ccccc12 [Compound 8g, N-(3-(1H-imidazol-1-yl)propyl)-5-(1,4-dimethoxynaphthalen-2-yl)furan-2-carboxamide]",18.28 ± 0.03%,7.59 ± 0.72%,26.89 ± 0.16%,27.46 ± 0.16%
"COc1cc(-c2ccc(C(=O)Nc3ccc(CN4CCN(C)CC4)c(C(F)(F)F)c3)o2)c(OC)c2ccccc12 [Compound 8h, 5-(1,4-Dimethoxynaphthalen-2-yl)-N-(4-((4-methylpiperazin-1-yl)methyl)-3-(trifluoromethyl)phenyl)furan-2-carboxamide]",28.47 ± 0.1%,16.5 ± 0.97%,21.6 ± 0.39%,19.6 ± 0.34%
"O=C(NC1CCN(Cc2ccccc2)CC1)c1ccc(C2=CC(=O)c3ccccc3C2=O)o1 [Compound 9a, N-(1-benzylpiperidin-4-yl)-5-(1,4-dioxo-1,4-dihydronaphthalen-2-yl)furan-2-carboxamide]",42.87 ± 0.22%,2.39 ± 0.09%,20.7 ± 0.49%,33.71 ± 0.13%
"CC(NC(=O)c1ccc(C2=CC(=O)c3ccccc3C2=O)o1)c1ccccc1 (stereo not drawn) [Compound 9b, 5-(1,4-Dioxo-1,4-dihydronaphthalen-2-yl)-N-(1-phenylethyl)furan-2-carboxamide]",18.65 ± 0.16%,12.82 ± 0.01%,8.8 ± 0.04%,7.22 ± 0.34%
"O=C(NCCC(=O)N1CCOCC1)c1ccc(C2=CC(=O)c3ccccc3C2=O)o1 [Compound 9c, 5-(1,4-Dioxo-1,4-dihydronaphthalen-2-yl)-N-(3-morpholino-3-oxopropyl)furan-2-carboxamide]",5.91 ± 0.29%,1.45 ± 0.86%,15.1 ± 0.31%,37.21 ± 0.08%
